Measurements taken from patent US20180055838A1, “METHODS AND COMPOSITIONS FOR TREATMENT OF DERMAL AND EPIDERMAL WOUNDS” (THE PENN STATE RESEARCH FOUNDATION, priority 2011, published 2018).

Key:
[1] = system: full-thickness cutaneous wound; assay: Healing of 5-mm full-thickness cutaneous wound in Type 2 diabetic (db/db) mice; assay type: in vivo; conditions: 10^−5 M NTX in moisturizing cream 3 times daily, by days 6, 13, and 15, p<0.05
From the text: To study the effects of opioid receptor antagonists on wound healing in a Type 2 diabetic and general obesity model, wound healing was compared between wild type and Lepr^db (also referred to as db/db) mutant mice. Mice homozygous for the diabetes spontaneous mutation (Lepr^db) become identifiably obese around 3 to 4 weeks of age. Plasma insulin levels become elevated beginning at 10 to 14 days and blood sugar levels become elevated beginning at four to eight weeks. These mice show delayed wound healing compared to wild type mice.
Mice were purchased from Jackson Laboratories and housed under standard laboratory care. Body weights and blood glucose levels of 8-week old Type 2 diabetic (db/db) mice and wild type C57Bl/6 mice were obtained (FIG. 9). Tail vein blood was obtained and glucose levels were measured by a TrueTrak glucometer. Values represent means±SEM; n=6-10 mice/treatment group.
To study wound healing, a 5-mm circular full-thickness cutaneous wound was created on the dorsum of db/db and wild type mice. Db/db mice were treated with either 10^−5 M Naltrexone (NTX) in moisturizing cream (vehicle), or vehicle alone; wild type mice received vehicle only. Applications were made 3 times daily for 15 days.

[2] = system: full-thickness cutaneous wounds; assay: Closure of 6 mm full-thickness cutaneous wounds (residual wound area, contraction, re-epithelialization); assay type: in vivo, rat; conditions: Normal rats, 10^−5 M NTX in MCN; for reduction of wound area relative to MCN+vehicle: within 3 days
Method: In a second set of experiments, Normal (n=70) and DB (n=70) Sprague-Dawley rats, 12-14 weeks of age and 8 weeks after injection of STZ, were subjected to wounding. Eight rats/treatment regimen were evaluated over the course of 3 independent experiments. The dorsum of the rat was shaved, and areas (20 mm in diameter) outlined with a marker in order to consistently position the wounds. Animals were anesthetized by i.p. injection of ketamine (60 mg/kg), xylazine (10 mg/kg), and acepromazine (1 mg/kg), and a 6 mm full-thickness circular excisional skin wound was made in the center of the demarked area to the level of the panniculus muscle using an Acupunch (Acuderm Inc., Fort Lauderdale, Fla.). Three wounds per rat were standardized such that the first wound was made 5 cm posterior to the occipital notch at the posterior of the animal's cranium and 1 cm off the midline. The second wound was created 7 cm posterior to the occipital notch at the posterior of the animal's cranium and 1 cm off the midline on the opposite side from the first wound. The third wound was placed 9 cm posterior to the occipital notch at the base of the animal's cranium and 1 cm off the midline on the same side as the first wound. To minimize the effects of diurnal rhythm, surgery was performed between 0800-0900 h. All wounds were left uncovered.
Topical administration of ˜0.1 ml of the carrier containing NTX or vehicle, using the dosage and carriers selected from the first experiment, was initiated immediately after wounding (0800 h for those rats receiving agents only once per day, and at 0800, 1200, and 1600 h for those animals receiving 3 applications daily); control rats received the carrier with vehicle either once or three times daily. Some animals in the Normal and DB groups were wounded but untreated.
Wound size was monitored by capturing images with a digital camera mounted on a tripod set 20 cm from the surface; a ruler was photographed with each wound. Animals were manually restrained without anesthesia for photography. Photographs were taken immediately after surgery and on days 3, 5, 7, 9, and 11. The area of each wound was analyzed using Image ProPlus 6.2 (Media Cybernetics, Inc., Bethesda, Md.). The percent residual wound was calculated at each time point for every rat. At 8 days, wound closure also was quantified according to Pietramaggiori and colleagues (Pietramaggiori et al., J Surg Res 160:169-177 (2010)) by measuring contraction, re-epithelialization, and open wound as a percentage of the original wound area. The sum of contracted, re-epithelialized, and open wound area was defined as equaling 100% of the original wound size (Yannas I., Tissue and Organ Regeneration in Adults. New York: Springer, 2001).

[3] = system: basal cells of the cutaneous epithelium; assay: DNA synthesis (BrdU labeling index) in stratum basale of unwounded dorsal skin; assay type: in vivo; conditions: for increase of BrdU incorporation relative to labeling index of DB animals: DB (T1D) rats
Method: Male Sprague-Dawley rats (˜150 g) were purchased from Charles River Laboratories (Wilmington, Mass.), and housed under standard laboratory conditions; water and food were available ad libitum. All investigations conformed to the guidelines of The Pennsylvania State University College of Medicine Institutional Animal Care and Use Committee.
Type 1 diabetes (T1D) was induced by intraperitoneal (i.p.) injections of 40 mg/kg streptozotocin (STZ, Sigma, St. Louis, Mo.), on two consecutive days (Klocek et al., Journal of Ocular Pharmacology and Therapeutics, 23:89-102 (2007); Havel et al., Diabetes, 49:244-252 (2000)). This regimen produced insulin-dependent diabetes in 100% of the animals within 72-96 h; rats with blood glucose levels measuring >350 mg/dl were considered diabetic (DB). Blood glucose levels were monitored from the tail vein using a True Track® Smart System glucometer (Home Diagnostics, Ft. Lauderdale, Fla.) before receiving STZ, and at 1, 4, and 8 weeks following induction of hyperglycemia. Control animals receiving an injection of an equivalent volume of sterile saline were termed “normal”. All rats were weighed weekly.
Normal (n=24) and diabetic (DB) rats (n=24) were randomized 8 weeks after injections of STZ or saline, and received NTX (Sigma-Aldrich, Indianapolis, Ind.) systemically (30 mg/kg, i.p. or subcutaneous (s.c.) at 0800 h) or topically 3 times daily at 0700, 1200, and 1700 h. For topical applications, NTX was dissolved in Sorenson's phosphate buffer (SPB), KY jelly (KYJ) (K-Y, Personal Products Company, McNeil-PPC, Inc., Skillman, N.J.), Neutrogena moisturizing cream (MCN) (Neutrogena Corporation, Los Angeles, Calif.), or DMSO (VWR, Philadelphia, Pa.). NTX was dissolved in sterile water at dosages of 10^−4 M, 10^−5 M or 10^−6 M, and thoroughly mixed into each of the carriers (1:1, v/v); 0.5 ml of saline mixed into corresponding carriers served as the respective vehicle control.
On the day preceding NTX or vehicle treatment, an 8×8 cm area was shaved on the dorsal surface of each rat and 4 circles (approximately 20 mm in diameter) were made with a permanent marker to denote locations of subsequent topical applications and/or skin collection. Using an applicator stick, one ml of carrier containing NTX or vehicle was placed within the demarked areas. Applications of NTX formulations were randomized to different positions. Each animal received NTX in 3 different concentrations, as well as the vehicle, in the same carrier; some rats received only saline in a carrier or were untreated.
To assess cells undergoing DNA synthesis, rats were injected i.p. with 100 mg/kg BrdU (Sigma-Aldrich) 3 and 6 h before euthanasia with Euthasol (Virbac, Fort Worth, Tex.). Appropriate regions of the skin were removed, fixed in 10% buffered formalin, and paraffin sections (6 μm) were stained with anti-BrdU-POD (Invitrogen, Carlsbad, Calif.). BrdU stained cells in the basal layer of the epithelium were counted in four 0.1 mm grids at 250× magnification using 2 sections/specimen; 3 tissue specimens were analyzed for each dosage of NTX in each carrier.

[4] = literature reports (Stinchcomb 2002; Krishman 2010); cited from earlier work
[5] = system: human and animal cells; conditions: human and animal cells (Cheng 2009); cited from earlier work
[6] = system: epithelium covering the granulation tissue; assay: Histopathology and epithelial thickness of wounded region 20 days after wounding; assay type: in vivo, rat
Method: On day 20 following creation of the wound, some rats were euthanized and the original wound areas as well as tissue peripheral to the wound that encompassed the 20 mm diameter circle were excised and fixed in 10% neutral buffered formalin. Tissues were processed for paraffin embedding; sections were stained with hematoxylin and eosin. The thickness of the epithelium covering the granulation tissue was measured with an ocular micrometer. Five measures/section from 7-8 wounds/treatment group were evaluated at 250× magnification.

O=C1CC[C@@]2(O)[C@H]3Cc4ccc(O)c5c4[C@@]2(CCN3CC2CC2)[C@H]1O5 [NTX, 17-(cyclopropylmethyl)-4,5α-epoxy-3,14-dihydroxymorphinan-6-one]
wound healing (percent residual defect) relative to db/db mice treated with vehicle only [1]: significant improvement in would healing
reduction of wound size relative to MCN+vehicle ([2]; one time daily, days 3, 5, 7, and 9): 31-82%
reduction of wound area relative to MCN+vehicle ([2]; single daily regimen): 30%
reduction of wound size relative to MCN+vehicle ([2]; three times daily, days 3, 5, 7, and 9 (day 9 not significant)): 11-23%
reduction of wound area relative to MCN+vehicle ([2]; three times daily): 11%
increase of BrdU incorporation relative to labeling index of DB animals ([3]; systemic 30 mg/kg NTX i.p.): 181%
increase of BrdU incorporation relative to labeling index of DB animals ([3]; systemic 30 mg/kg NTX s.c.): 59%
effect on BrdU incorporation ([3]; DB rats, topical NTX 10^−4 and 10^−5 M in SPB): no effect
elevation of labeling index from baseline levels ([3]; DB rats, topical NTX at all 3 dosages in KYJ): 103-147%
elevation of labeling index from baseline levels ([3]; DB rats, topical NTX at all 3 dosages in MCN): 85-89%
efficacy on BrdU labeling ([3]; DB rats, topical NTX combined with DMSO, only at 10^−4 and 10^−5 M): efficacious
elevation of BrdU labeling relative to labeling index of Normal rats ([3]; Normal rats, systemic 30 mg/kg NTX i.p.): 172%
elevation of BrdU labeling relative to labeling index of Normal rats ([3]; Normal rats, systemic 30 mg/kg NTX s.c.): 51%
elevation of DNA synthesis from baseline levels ([3]; Normal rats, topical NTX 10^−4 M to 10^−6 M in any of the 4 carriers (SPB, DMSO, KYJ, MCN)): 43-132%
increase in BrdU incorporation in the skin compared to baseline ([3]; Normal rats, topical NTX in SPB): 43-56%
change of BrdU incorporation from baseline ([3]; Normal rats, topical NTX, different dosages, in MCN): 73-132%
toxicity of the effects on cell proliferation ([3]; T1D and normal rats, systemic or topical): not toxic
penetration of the skin [4]: poor penetrator of the skin
entry into cells [5]: rapidly by passive diffusion
thickness of the epithelium relative to Normal animals receiving vehicle (24.6±1.6 μm) ([6]; DB rats subjected to NTX, day 20 (DB vehicle had a 44% reduction)): did not differ
general structure of the epithelium (e.g., absence of necrotic cells) ([6]; Normal and DB rats receiving vehicle or NTX, 20 days following surgery): appeared to be similar
thickness of the epithelium relative to Normal animals receiving vehicle (24.6±1.6 μm) ([6]; Normal rats treated with NTX, day 20): did not differ
